Patent US8217005B2 (priority 2006, dated 2012)
pIC50: −log10 of the molar value.

Legend:
human μ-opioid receptor = molecular target: T1, human μ-opioid receptor (Homo sapiens, UniProt P35372); test: biochemical; assay type: binding
T1 construct: expressed in transfected cells; host or cells: HEK-293 cells

[1] = rat, in vivo
[2] = male, Sprague-Dawley, rat, in vivo, 0.5 mg/kg

T1 sequence (P35372 whole entry): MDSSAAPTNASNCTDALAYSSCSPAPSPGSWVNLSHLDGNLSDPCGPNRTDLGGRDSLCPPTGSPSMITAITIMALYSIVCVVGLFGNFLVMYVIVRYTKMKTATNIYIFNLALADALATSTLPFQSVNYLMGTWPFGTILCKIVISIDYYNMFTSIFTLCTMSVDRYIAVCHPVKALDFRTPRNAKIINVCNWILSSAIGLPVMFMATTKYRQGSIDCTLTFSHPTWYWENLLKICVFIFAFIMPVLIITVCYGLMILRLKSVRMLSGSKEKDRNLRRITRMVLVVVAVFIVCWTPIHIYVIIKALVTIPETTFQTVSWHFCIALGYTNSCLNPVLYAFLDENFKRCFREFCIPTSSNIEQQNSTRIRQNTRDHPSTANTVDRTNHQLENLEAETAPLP

Molecule `CN(CCNC(=O)[C@@H](N)CCCNC(=N)N)C(=O)Oc1ccc2c3c1OC1C(=O)CCC4[C@@H](C2)N(C)CC[C@]314` (stereo partly drawn) [Example 1, Hydromorphone 3-(N-methyl-N-(2-arginylamino))ethylcarbamate] has a pIC50 (human μ-opioid receptor) of 5.68.

`CC(=O)N[C@@H](CCCNC(=N)N)C(=O)NCCN(C)C(=O)Oc1ccc2c3c1OC1C(=O)CCC4[C@@H](C2)N(C)CC[C@]314` (stereo partly drawn) [Example 3, Hydromorphone 3-(N-methyl-N-(2-N′-acetylarginylamino))ethylcarbamate] showed a pIC50 (human μ-opioid receptor) of 5.89.

With `CN(CCNC(=O)[C@H](CCCNC(=N)N)NC(=O)c1ccc2c(c1)OCO2)C(=O)Oc1ccc2c3c1OC1C(=O)CCC4[C@@H](C2)N(C)CC[C@]314` (stereo partly drawn) [Example 6, Hydromorphone 3-(N-methyl-N-(N′-piperonyl-2-arginylamino))ethylcarbamate] the pIC50 (human μ-opioid receptor) was 6.10.

`CN(CCNC(=O)[C@@H](N)CCCCN)C(=O)Oc1ccc2c3c1OC1C(=O)CCC4[C@@H](C2)N(C)CC[C@]314` (stereo partly drawn) [Example 7, Hydromorphone 3-(N-methyl-N-(2-lysinylamino))ethylcarbamate] showed a pIC50 (human μ-opioid receptor) of 6.10.

With `CN(CCN)C(=O)Oc1ccc2c3c1O[C@H]1C(=O)CC[C@@]4(O)[C@@H](C2)[N+](C)(CC2CC2)CC[C@]314.Cl.[Cl-]` (stereo partly drawn) [Example 19] the “pharmacokinetic profile (e.g. oral bioavailability), FIG. 1” value ([1]; 20 mg/kg) was “improved pharmacokinetic profile” and the “Cmax value compared to (R)-N-methylnaltrexone” value ([1]; po) was “superior”.

With `C[N@+]1(CC2CC2)CC[C@]23c4c5ccc(O)c4O[C@H]2C(=O)CC[C@@]3(O)[C@H]1C5` [N-methylnaltrexone, (R)—N-methylnaltrexone, reference compound] the “Cmax N-MTX following PO dosing” value ([1]; 20 mg/kg) was 6 ng/mL and the “pharmacokinetic profile (e.g. oral bioavailability), FIG. 1” value ([1]; 20 mg/kg) was “poor pharmacokinetic profile”.

In the case of `CN1CC[C@]23c4c5ccc(O)c4O[C@H]2C(=O)CC[C@@]3(O)[C@H]1C5` [oxymorphone], the “Cmax OM following IV dosing” value [2] was 432 ng/mL.
